The values below come from US8470352B2, “Magnesium compositions and uses thereof for metabolic disorders” (Magceutics, Inc., priority 2007, dated 2013).

Data set [1] has as its system rats (young, aging, aged). The following applies: p<0.05. The method, then: Twenty 2-month old, male Sprague Dawley (SD) rats were housed in a temperature-controlled room (22° C. to 25° C.) with a dark period from 08:00 pm to 08:00 am daily. […] Over 7 days before the training and trial period began, each rat was handled and habituated to the maze and to Kellogg's Froot Loop cereal.
Each rat underwent a test of one trial, followed by an interval of 10-minutes, followed by another trial, and so on, for a total of 6 trials in one day. In each trial, each rat went through a sample run in the maze, followed by an interval of 15 seconds, followed by a choice run in the maze. […]
On the first day (designated day 0) of the feeding of the two groups, as just described, each rat underwent a preliminary test of one trial, followed by an interval of 10 minutes, followed by another trial, and so on, for a total of 4 trials in one day. […] In this preliminary test, the choice accuracy level, or ratio of correct choices made, co, to the number of number of trials in the test, no, was determined for each rat. […]
Three groups of animals (young, aging, and magnesium-treated aging rats) were used. […] Spatial working memory was assessed using a T-maze non-matching-to-place task. […] Spatial working memory was first assessed on an elevated T-maze. […]

A short description of data set [2]: Magnesium absorption rate in rats (urine and feces magnesium by ICP-AES, linear regression). The following applies: Examples 5 and 6, gluconate in skim milk or 5 weight percent lactose water, chloride and threonate in water; for magnesium absorption rate at higher dosage: high magnesium dosage. As for the experimental part:
Fifty 3-month old, male Sprague Dawley (SD) rats were divided into five groups of ten rats. Rats of this age and older are considered adult. Each of the rats was placed in a separate metabolic cage equipped with urine- and feces-collecting wells. All of the rats were maintained in a temperature-controlled room (22° C. to 25° C.) with a dark period from 08:00 pm to 08:00 am daily. From day 1 through day 3, each rat was fed daily 15 g of magnesium-free food and de-ionized water. […] The medium was skim milk for Composition 1 and Group 1, milk prepared from powdered milk, by diluting the powdered milk with water to obtain a composition like that of skim milk, for Composition 2 and Group 2, 1% milk cream in water for Composition 3 and Group 3, water comprising 5 weight percent lactose for Composition 4 and Group 4, and water for the Control Composition and Control Group. […] From day 11 through day 12, each rat was fed daily 15 g of magnesium-free food and de-ionized water.
From day 4 through day 10, urine from each rat was collected daily. The collected urine from each rat was then pooled together and the total volume of the pooled urine from each rat was recorded. The pooled urine from each rat, in an amount of […], was analyzed for magnesium content using an inductively coupled plasma-atomic emission spectrometer (ICP-AES). From day 5 to day 11, feces from each rat were collected daily. The collected feces from each rat were pooled together and the pooled feces were weighed and homogenized. The pooled feces from each rat, in an amount of 0.5 g, were analyzed for magnesium content using an ICP-AES.
A formula was used to calculate a magnesium absorption rate for each rat. The formula used was Y=AX−B, wherein X was the average total daily magnesium intake, Y was the average net daily amount of magnesium absorbed, as calculated by X minus the average daily amount of magnesium excreted from feces, B was the average daily amount of magnesium excreted from feces when the magnesium intake was zero, and the slope A represented the magnesium absorption rate. […]

The subject of another data set is rats (young, aging). Nature of the data set: Novel object recognition test in rats. Type of data set: in vivo, Sprague-Dawley rats. The method, then:
In this example, the effect of magnesium supplementation on recognition memory was tested. Three groups of rats were used in these experiments: 1) young rats (three months old); aging rats (12-14 months old), and; 3) magnesium-treated aging rats (12-14 months old, diet supplemented with 6 mg/kg MgCl2 from 8 months of age). We used experimentally naive, female, Sprague-Dawley young […], aging (12-14 month old) and […] rats (Charles River) at the beginning of the behavior experiments. They were housed two per cage with continuous access to food and water under a 12:12 light-dark cycle, with light onset at 8:00 a.m. […] All experiments involving animals were approved by the Massachusetts Institute of Technology's and Tsinghua University Committees on Animal Care.
The three groups of rats were tested for recognition memory using an object recognition test with a single exposure to the object during training. The task is based on the natural tendency of rodents to explore new objects and tests the animals' memory capacity for distinguishing novel versus familiar objects.
Briefly, the rats were first individually habituated to the personnel and then to open-field arena during 2 weeks. […] The retention intervals were 10 min and 24 hours. Objects were cleaned thoroughly between trials with 20% ethanol solution to ensure the absence of olfactory cues. The particular objects for a given trial were randomly determined, but each object was used for only one trial per rat. Memory of the familiar object is associated with increased exploration of the new object and an exploration index (% correct) is calculated as new object inspection time/30.
In this example, the effect of magnesium supplementation on memory consolidation was studied. […]
Briefly, the rats were first individually habituated to the personnel and then to open-field arena during 2 weeks. […] The particular objects for a given trial were randomly determined, but each object was used for only one trial per rat. […]

The conditions of data set [3]: in vivo; cited from earlier work.
Another data set deals with diabetic patients. The following applies: nearly 1 g of magnesium daily for 1 month; cited from earlier work.
Data set [4] deals with young (9-month old) and aged (25-month old) rats. The following applies: food containing 2% magnesium oxide for 8 days; gain transient; cited from earlier work.
Data set [5] deals with mice genetically altered to present symptoms of Alzheimer's disease (AD). Nature of the data set: Modified Morris water maze test in AD mice. In kind it is in vivo. The following applies: AD mice aged 13 months; FIG. 16 panels A and B. As for the experimental part: Another group, the control group, of 10 mice that were genetically altered to present symptoms of AD were fed a Control Diet, a diet of normal solid food and water, for 30 days.
The pool used was a pool of water in a circular metal tank (150 cm in diameter and 50 cm in depth) having a water height of 30 cm and a water temperature that was maintained at ˜22° C. The pool was placed in a moderately lit area and surrounded by a black curtain. An acrylic platform (15 cm in diameter) was placed 2 cm below the surface of the water in the middle of one quadrant of the pool, equidistant from the center and the edge of the pool. Outside the pool, a cue was placed so as to be visible to a mouse in the maze, allowing a mouse to use it as a landmark for spatial orientation. The cue remained unchanged throughout the test period.
On the first day of the training and testing period, the water in the pool was transparent, such that the platform was visible. Each mouse was trained to swim towards the platform and to stand on the platform so as not to be submerged in the pool. […] The amount of time the mouse took to find the platform, referred to as “escape latency,” was recorded for each trial.
On the second day of the training and testing period, a small quantity of milk was added to the water in the pool, such that the pool was opaque and the platform was no longer visible. […]

As to `[Cl-].[Cl-].[Mg+2]` [magnesium chloride], the “learning in T-maze non-matching-to-place task, 15 sec delay” value in data set [1] (6 mg/kg MgCl2, FIG. 10 left panel) is recorded as “performed significantly better from their first trials”. In data set [1] (6 mg/kg MgCl2, FIG. 10 right panel), the “spatial working memory at 2 and 5 min delays” value is listed as “significantly enhanced the performance of the aging rats”. Further, the “magnesium absorption rate at higher dosage” value in data set [2] is given as “less desirable”. In data set [2] (low magnesium dosage), the “magnesium absorption rate at relatively low dosage” value was “suitable, but lower”. In addition, the “novel object exploration preference, 10 minute retention interval” value in the data set on rats (young, aging) (aging rats (12-14 months old), diet supplemented with 6 mg/kg MgCl2 from 8 months of age, single training, FIG. 8, P<0.0001) is given as “preferentially explored the novel object to the same extent as young rats”. For the same molecule, the “novel object discrimination after 24 hours” value with rats (young, aging) (aging rats, 6 mg/kg MgCl2, single training) is on record as “lose there ability to distinguish novel versus familiar objects”. The “preference for the novel object, 24-hour retention interval after spaced training” value with rats (young, aging) (aging rats, 6 mg/kg MgCl2, two training sessions, FIG. 9) is given as “retained a high level of preference”.
With `[O]=[Mg]` [magnesium oxide], the “magnesium bioavailability, or absorption rate in the human body” value in data set [3] is on record as “very low”. In the data set on diabetic patients, the metabolic control entry is recorded as “only minor improvement”. For the same molecule, the cognitive function entry in data set [4] is “some sign of improvement”.
For the molecule `CC12CC3CC(C)(C1)CC(N)(C3)C2` [memantine], the “reduction of the effects of AD on learning capacity, comparison of anti-AD drugs” value in data set [5] is given as “better at reducing the effects of AD on learning capacity than aricept”.
As for magnesium gluconate, the “magnesium absorption rate at higher dosage” value in data set [2] is given as “suitably close to those associated with the lower dosage compositions”.
